Reference: PMC11309911 (British journal of pharmacology, 2024)

Molecular target: Cav2.1 calcium channel α1 subunit (P/Q-type hCav2.1) (Homo sapiens, UniProt O00555)
Assay: whole-cell patch clamp of ICa in transfected HEK293-F cells
Type: cell-based

Sequence of Cav2.1 calcium channel α1 subunit (P/Q-type hCav2.1) (O00555 whole entry): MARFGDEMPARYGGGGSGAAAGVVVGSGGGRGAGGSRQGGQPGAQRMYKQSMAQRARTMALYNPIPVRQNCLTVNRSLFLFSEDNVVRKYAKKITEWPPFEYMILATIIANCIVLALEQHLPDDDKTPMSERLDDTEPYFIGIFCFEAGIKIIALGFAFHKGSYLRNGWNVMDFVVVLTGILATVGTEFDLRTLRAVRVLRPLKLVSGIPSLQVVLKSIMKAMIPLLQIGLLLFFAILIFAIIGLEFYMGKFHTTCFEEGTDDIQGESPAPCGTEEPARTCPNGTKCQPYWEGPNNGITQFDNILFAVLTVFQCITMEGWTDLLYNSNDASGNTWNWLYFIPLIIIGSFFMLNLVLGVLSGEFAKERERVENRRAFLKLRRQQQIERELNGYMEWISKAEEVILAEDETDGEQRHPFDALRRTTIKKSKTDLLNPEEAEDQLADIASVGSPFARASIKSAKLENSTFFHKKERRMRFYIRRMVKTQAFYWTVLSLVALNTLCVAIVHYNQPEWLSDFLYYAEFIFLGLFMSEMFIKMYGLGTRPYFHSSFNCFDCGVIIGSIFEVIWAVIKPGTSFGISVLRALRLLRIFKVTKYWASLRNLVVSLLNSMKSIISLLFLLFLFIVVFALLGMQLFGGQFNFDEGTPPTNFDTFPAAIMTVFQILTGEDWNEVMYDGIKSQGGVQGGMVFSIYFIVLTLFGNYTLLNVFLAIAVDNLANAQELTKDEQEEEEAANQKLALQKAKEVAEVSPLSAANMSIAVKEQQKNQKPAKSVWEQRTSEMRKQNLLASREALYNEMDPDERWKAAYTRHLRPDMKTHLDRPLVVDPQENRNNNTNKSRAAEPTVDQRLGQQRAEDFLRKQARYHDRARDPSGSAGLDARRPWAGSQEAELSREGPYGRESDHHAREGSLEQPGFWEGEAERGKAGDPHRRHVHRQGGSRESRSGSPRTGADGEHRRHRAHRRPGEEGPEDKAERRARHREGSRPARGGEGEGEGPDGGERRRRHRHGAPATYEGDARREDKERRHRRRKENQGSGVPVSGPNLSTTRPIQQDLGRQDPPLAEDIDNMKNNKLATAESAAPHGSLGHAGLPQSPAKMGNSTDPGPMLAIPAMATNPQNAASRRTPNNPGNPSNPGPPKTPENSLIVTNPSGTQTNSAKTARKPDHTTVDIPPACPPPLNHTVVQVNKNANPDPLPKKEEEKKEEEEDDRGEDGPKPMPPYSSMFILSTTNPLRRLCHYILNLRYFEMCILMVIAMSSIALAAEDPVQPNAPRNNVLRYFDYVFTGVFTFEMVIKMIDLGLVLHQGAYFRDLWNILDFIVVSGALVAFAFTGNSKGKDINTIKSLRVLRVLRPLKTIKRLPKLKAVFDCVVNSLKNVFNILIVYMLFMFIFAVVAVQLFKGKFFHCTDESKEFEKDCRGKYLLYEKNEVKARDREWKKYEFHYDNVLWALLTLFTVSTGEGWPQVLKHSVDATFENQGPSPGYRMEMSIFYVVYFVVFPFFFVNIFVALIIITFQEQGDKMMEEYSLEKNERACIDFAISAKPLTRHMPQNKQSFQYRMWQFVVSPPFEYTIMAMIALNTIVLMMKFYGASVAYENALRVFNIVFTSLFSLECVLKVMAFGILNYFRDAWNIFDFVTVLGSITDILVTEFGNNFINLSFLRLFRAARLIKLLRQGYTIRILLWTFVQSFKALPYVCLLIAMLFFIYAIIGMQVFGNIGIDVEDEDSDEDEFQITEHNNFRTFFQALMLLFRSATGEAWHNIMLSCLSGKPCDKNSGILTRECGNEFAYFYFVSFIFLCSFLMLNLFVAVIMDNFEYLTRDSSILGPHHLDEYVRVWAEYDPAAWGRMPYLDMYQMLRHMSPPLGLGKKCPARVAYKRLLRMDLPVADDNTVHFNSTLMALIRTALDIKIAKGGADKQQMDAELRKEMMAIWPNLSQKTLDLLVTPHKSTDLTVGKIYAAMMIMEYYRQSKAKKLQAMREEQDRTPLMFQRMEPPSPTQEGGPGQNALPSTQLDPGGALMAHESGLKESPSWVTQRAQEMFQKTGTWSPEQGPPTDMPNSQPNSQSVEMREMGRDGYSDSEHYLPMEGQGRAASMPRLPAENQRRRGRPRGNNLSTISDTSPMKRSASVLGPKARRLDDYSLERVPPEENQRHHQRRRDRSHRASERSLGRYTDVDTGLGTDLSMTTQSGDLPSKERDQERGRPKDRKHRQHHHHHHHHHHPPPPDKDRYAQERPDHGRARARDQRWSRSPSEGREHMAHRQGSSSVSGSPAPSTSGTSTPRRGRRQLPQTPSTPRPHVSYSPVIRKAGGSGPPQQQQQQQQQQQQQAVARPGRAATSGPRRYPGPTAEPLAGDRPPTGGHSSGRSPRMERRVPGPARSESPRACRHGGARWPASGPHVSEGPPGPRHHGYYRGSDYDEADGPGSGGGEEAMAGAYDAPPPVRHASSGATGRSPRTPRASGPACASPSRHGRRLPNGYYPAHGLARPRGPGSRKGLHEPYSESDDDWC

IC50: ~2500 nM
SMILES: N.N.N.N.N.N.N.N.[Cl][Ru+3].[NH]=[Ru][Cl] [Ru265]
